One data set can be described thus: Thermodynamic solubility. The format is physicochemical. On the procedure: A known amount of the test compound was stirred in 0.1M phosphate buffer pH 7.4 at constant temperature (25° C.) for 24 h. The supernatant was then separated from un-dissolved material by double centrifugation, and subsequently analysed and quantified against a standard of known concentration in DMSO using generic HPLC-UV methodology coupled with mass spectral peak identification. Data are also included for a reference quinazolin-2,4-dione derivative disclosed in WO 03/053344.

The next data set deals with RSV RSS strain. Nature of the data set: ELISA assay of antiviral activity against RSV (reduction in RSV protein expression). The format is cell-based. The following applies: Hep-2 cells infected with RSV RSS strain, multiplicity of infection 0.02, 3 days, concentration required to inhibit RSV protein expression by 50%. The protocol: The antiviral activity of these compounds against RSV was determined in an ELISA assay. […] ELISA assays were set up by seeding 96-well plates with 5×10^3 Hep-2 cells per well in 100 μl DMEM containing 10% FBS for 24 h. Compound dilutions were prepared in 0.5% DMSO and 50 μl/well was added to the assay plates, the plates were incubated at 37° C. in 5% CO2 for one hour. Cells were infected with 50 μl/well RSV RSS strain at a multiplicity of infection of 0.02 and were incubated at 37° C. in 5% CO2 for 3 days. Cells were then fixed and permeabilised with 75%/25% methanol acetone and blocked with 2% Marvel™, 0.05% Tween for one hour. Plates were then incubated in the presence of a 1:4000 dilution of […] polyclonal antibody (Millipore, AB1128) followed by a 1:1000 dilution of rabbit anti-goat, horseradish peroxidase (DAKO, PO449) labelled secondary antibody. The plates were developed with O-phenylenediamine in the presence of hydrogen peroxide. The antiviral activity of the compounds is presented as an IC50, the concentration required to inhibit RSV protein expression by 50%.
(In general: In an ELISA, binding on a coated surface is turned into a signal by an enzyme label.)

Setting [1] is: aqueous buffer, thermodynamic from solid, 0.1M phosphate buffer pH 7.4, 25° C., 24 h, HPLC-UV.
[2] abbreviates: human respiratory syncytial virus, 72 h.

The values below come from patent US20100278835A1, “NOVEL COMPOUNDS 660” (ASTRAZENECA UK LIMITED, priority 2009, published 2010).

≈ marks a conversion by molar mass, not a printed value.

The molecule `CC(C)CCn1c(Cn2c(=O)n(C3CC3)c(=O)c3ccccc32)nc2cc(CN)ccc21` [reference compound] came in with a solubility (thermodynamic) at 24 h in “Thermodynamic solubility” (setting [1]) of 70 µM (≈ 30.2 µg/mL). In turn, `COCCn1c(=O)c2ccccc2n(Cc2nc3cc(CN)ccc3n2CCC(C)C)c1=O` [reference compound] had a solubility (thermodynamic) at 24 h in “Thermodynamic solubility” (setting [1]) of 36 µM (≈ 16.2 µg/mL). Compared with the last molecule, the solubility thermodynamic at 24 h is about 1.9-fold lower. `NCc1ccc2c(c1)nc(CN1C(=O)N(C3CC3)Cc3ccccc31)n2CCCC(F)(F)F` [Example 28, 1-[[5-(Aminomethyl)-1-(4,4,4-trifluorobutyl)benzimidazol-2-yl]methyl]-3-cyclopropyl-4H-quinazolin-2-one] gave an IC50 in the data set with RSV RSS strain (setting [2]) of 0.5 nM. For the same molecule, the solubility (thermodynamic) at 24 h in the data set “Thermodynamic solubility” (setting [1]) is 289 µM (≈ 132 µg/mL). In the same order, the values of `CC(C)CCn1c(CN2C(=O)N(C3CC3)Cc3ccccc32)nc2cc(CN)ccc21` [Example 7, 1-[[5-(Aminomethyl)-1-isopentyl-benzimidazol-2-yl]methyl]-3-cyclopropyl-4H-quinazolin-2-one] are 1.7 nM and 2300 µM (≈ 960 µg/mL).

Take `CC(C)CCn1c(Cn2c(=O)n(C)c(=O)c3ccccc32)nc2cc(CN)ccc21` [reference compound]: the thermodynamic solubility at 24 h in the data set “Thermodynamic solubility” (setting [1]) is 16 µM (≈ 6.49 µg/mL). That is a double-digit micromolar value. In the data set on RSV RSS strain, “1-[[5-(aminomethyl)-1-isopentyl-benzimidazol-2-yl]methyl]-3-cyclopropyl-4,4-dimethyl-quinazolin-2-one [Example 21]” yielded an IC50 of 57 nM. The molecule also had a solubility (thermodynamic) at 24 h in the data set “Thermodynamic solubility” (pH 7.4) of 1050 µM. `COCCN1Cc2ccccc2N(Cc2nc3cc(CN)ccc3n2CCC(C)C)C1=O` [Example 13, 1-[[5-(aminomethyl)-1-isopentyl-benzimidazol-2-yl]methyl]-3-(2-methoxyethyl)-4H-quinazolin-2-one] returned an IC50 in the data set on RSV RSS strain (setting [2]) of 101 nM. In “Thermodynamic solubility” (setting [1]), this molecule registered a thermodynamic solubility at 24 h of 1560 µM (≈ 679 µg/mL). In turn, `Cc1cc2c(cc1CN)nc(CN1C(=O)N(C3CC3)Cc3ccccc31)n2CCC(C)C` [Example 46, 1-[[5-(Aminomethyl)-1-isopentyl-6-methyl-benzimidazol-2-yl]methyl]-3-cyclopropyl-4H-quinazolin-2-one] displayed an IC50 in the data set with RSV RSS strain (setting [2]) of 1.5 nM. For the same molecule, the thermodynamic solubility at 24 h in “Thermodynamic solubility” (setting [1]) came to 831 µM (≈ 359 µg/mL). In the same order, the values of `CC(C)CCn1c(CN2C(=O)N(C3CC3)C(C)c3ccccc32)nc2cc(CN)ccc21` (centres unmarked) [Example 20, 1-[[5-(aminomethyl)-1-isopentyl-benzimidazol-2-yl]methyl]-3-cyclopropyl-4-methyl-4H-quinazolin-2-one] are 9.4 nM and 654 µM (≈ 282 µg/mL). Molecule `NCc1ccc2c(c1)nc(Cn1c(=O)n(C3CC3)c(=O)c3ccccc31)n2CCCC(F)(F)F` [reference compound] returned a thermodynamic solubility at 24 h in “Thermodynamic solubility” (setting [1]) of 90 µM (≈ 42.4 µg/mL). In other words, the double-digit micromolar range. Take `CC(C)CCn1c(CN2C(=O)N(C)Cc3ccccc32)nc2cc(CN)ccc21` [Example 5, 1-[[5-(aminomethyl)-1-isopentyl-benzimidazol-2-yl]methyl]-3-methyl-4H-quinazolin-2-one]: in the data set on RSV RSS strain (setting [2]), the midpoint of inhibition, the IC50, lay at 8.9 nM. This molecule also registered a thermodynamic solubility at 24 h in the data set “Thermodynamic solubility” (setting [1]) of 2290 µM (≈ 897 µg/mL). Regarding “1-[[5-(aminomethyl)-1-(4-hydroxybutyl)benzimidazol-2-yl]methyl]-3-(2-methoxyethyl)-4H-quinazolin-2-one [Example 26]”, the IC50 with RSV RSS strain turned out to be 0.4 nM. In other words, the sub-nanomolar range.

In the data set on RSV RSS strain (setting [2]), `CC(C)CCn1c(CN2C(=O)N(C3CC3)Cc3ccccc32)nc2cc(C(=N)N)ccc21` [Example 35, 2-[(3-cyclopropyl-2-oxo-4H-quinazolin-1-yl)methyl]-1-isopentyl-benzimidazole-5-carboxamidine] yielded an IC50 of 3.2 nM. The solubility (thermodynamic) at 24 h in “Thermodynamic solubility” (setting [1]) was found to be 808 µM (≈ 348 µg/mL). Take `CC(C)CCn1c(CN2C(=O)N(C3CC3)C(C)c3ccccc32)nc2cc(C(N)=NO)ccc21` (centres unmarked) [Example 39, 2-[(3-cyclopropyl-4-methyl-2-oxo-4H-quinazolin-1-yl)methyl]-N′-hydroxy-1-isopentyl-benzimidazole-5-carboxamidine]: the IC50 in the data set on RSV RSS strain (setting [2]) turned out to be 400 nM.

“1-[[5-(aminomethyl)-1-(4-hydroxybutyl)benzimidazol-2-yl]methyl]-3-(cyclohexylmethyl)-4H-quinazolin-2-one [Example 27]” had an IC50 with RSV RSS strain of 94 nM. Molecule `CC(C)CCn1c(CN2C(=O)N(C3CC3)Cc3ccccc32)nc2ccccc21` [Example 1] showed an IC50 in the data set with RSV RSS strain (setting [2]) of 1890 nM. For `CC(C)CCn1c(CN2C(=O)N(C3CC3)Cc3c(F)cccc32)nc2cc(CN)ccc21` [Example 23, 1-[[5-(aminomethyl)-1-isopentyl-benzimidazol-2-yl]methyl]-3-cyclopropyl-5-fluoro-4H-quinazolin-2-one], the IC50 in the data set with RSV RSS strain (setting [2]) was 7.7 nM. In addition, the solubility (thermodynamic) at 24 h in the data set “Thermodynamic solubility” (setting [1]) amounted to 242 µM (≈ 105 µg/mL).

The term thermodynamic solubility denotes solubility found after equilibrating the solid with the medium. In general, IC50 refers to the point on the concentration scale where inhibition reaches its midpoint. A high value points to weaker potency.
